Laboratory results taken from patent US20130252950A1, “TARGETING MTOR SUBSTRATES IN TREATING PROLIFERATIVE DISEASES” (President and Fellows of Harvard College, priority 2010, published 2013).
Several values for one entry are separate records, joined by “and”; a condition that tells them apart may be missing. Identical values can stand only once.

Tested on: TSC2−/− MEFs
Experiment: Rapamycin screen: SILAC quantitative phosphoproteomics (two biological replicates)
Assay type: cell-based, mouse
Experimental: Two sets of large-scale, quantitative phospho-proteomics experiments were performed to fully define how mTOR-containing complexes signal to downstream effectors (FIG. 1A). The first SILAC experiment (rapamycin screen) was performed using growth factor-deprived TSC2−/− mouse embryonic fibroblasts (MEFs).
Two populations of TSC2−/− cells were grown in parallel, one in conventional media (“light”) and the other in media containing [^13C6^15N2]lysine and [^13C6^15N4]arginine (“heavy”) (FIG. 1A and Table 5). […] We performed two biological replicates of this experimental design with cross-labeling (swapping the labeled state of the rapamycin-treated cells, Table 5), from which a total of 14,635 (FDR=0.25%) and 32,500 (FDR=0.28%) phosphopeptides were identified, respectively. These corresponded to identification of at least 4,484 and 6,832 unique phosphorylation sites on 1,615 and 1,866 proteins, respectively. The quantitation was highly accurate (Table 5) with 93.7% of the phosphoproteome changing less than 50% in abundance between the rapamycin-treated (light) and control (heavy) cells (second biological replicate experiment, Median Log2(H/L)=−0.02 and standard deviation Log2(H/L)=0.53, FIG. 1A). […] Note that the Rapamycin screen includes two biological replicates.
Using this criteria, several hundred peptides (corresponding to 148 and 85 proteins respectively, in the two biological replicates, Table 11) were determined to contain rapamycin-sensitive phosphorylation sites. […] Note that there are two biological replicate experiments for the rapamycin screen (“Table 11 Rapa Replicate 1,” and “Table 11 Rapa Replicate 2,” respectively) and one Ku-0063749 replicate (“Table 11 Ku”). Treatment for the light and heavy cells in each experiment is described in FIG. 1C. We observed a similar distribution for the phosphopeptides in the […] biological replicate experiment and found 85 proteins (Table 11) that carried rapamycin-sensitive phosphorylation sites.
The analysis identified 4,484 and 6,832 unique phosphorylation sites on 1,615 and 1,866 proteins from two biological replicate experiments, respectively, and achieved a high level of accuracy in quantitation (Table 5). […] A representative identification of the known rapamycin-sensitive phosphorylation sites on ribosomal protein S6 is shown in FIG. 1B.
TSC2−/− MEFs were used in the rapamycin screen due to constitutive hyperactivation of mTORC1 signaling in this cell line. Cells were grown in light ([^12C6^14N2]Lys, [^12C6^14N4]Arg) and heavy ([^13C6^15N2]Lys, [^13C6^15N4]Arg) DMEM (Cambridge Isotope Labs), respectively. Both light and heavy DMEM were supplemented with 10% dialyzed FBS (Invitrogen). Cells were serum-deprived for 17 hours and cells were cultured inheavy media were treated with 20 nM rapamycin for two hours. We performed two biological replicates of this experimental design with cross-labeling (swapping the labeled state of the rapamycin-treated cells).

[1] = downregulated phosphorylation, TSC2−/− MEFs, 20 nM rapamycin 2 h vs DMSO, second biological replicate

## CO[C@H]1C[C@@H]2CC[C@@H](C)[C@@](O)(O2)C(=O)C(=O)N2CCCC[C@H]2C(=O)O[C@H]([C@H](C)C[C@@H]2CC[C@@H](O)[C@H](OC)C2)CC(=O)[C@H](C)/C=C(\C)[C@@H](O)[C@@H](OC)C(=O)[C@H](C)C[C@H](C)/C=C/C=C/C=C/1C [rapamycin]
Ahctf1 phosphopeptide NGVSLFNS*PKTEQPSPVVHSFPHPELPEAFVGTPISNTSQR, SEQ ID NO: 1120, rapamycin screen
  Log2 Area (H/L) Ratio: 1.0661
Ahctf1 phosphopeptide NGVSLFNSPK@T*EQPSPVVHSFPHPELPEAFVGTPISNTSQR^, SEQ ID NO: 1119, rapamycin screen
  Log2 Area (H/L) Ratio: 1.0661
Ahctf1 phosphopeptide NGVSLFNSPK@TEQPSPVVHS*FPHPELPEAFVGTPISNTSQR^, SEQ ID NO: 1121, rapamycin screen
  Log2 Area (H/L) Ratio: 1.0661
Ahnak phosphopeptide S*NS*FSDERAEFSAPSTPTGTLEFAGGDAK@, SEQ ID NO: 1147, rapamycin screen
  Log2 Area (H/L) Ratio: 1.0143
Ahnak phosphopeptide S*NS*FSDEREFSAPSTPTGTLEFAGGDAK, SEQ ID NO: 1148, rapamycin screen
  Log2 Area (H/L) Ratio: 1.0143
Ahnak phosphopeptide S*NS*FSDEREFSAPSTPTGTLEFAGGDAK, SEQ ID NO: 1149, rapamycin screen
  Log2 Area (H/L) Ratio: 1.0143
Arhgap17 phosphopeptide LGEQGPEPGPT*PPQT*PT*PPST*PPLAK, SEQ ID NO: 1124, rapamycin screen
  Log2 Area (H/L) Ratio: 1.0618
Arid1a phosphopeptide GPS*PSPVGS*PASVAQSR^, SEQ ID NO: 1151, rapamycin screen
  Log2 Area (H/L) Ratio: 1.0107
Atxn2 phosphopeptide TS*PAGGTWSSVVSGVPR, SEQ ID NO: 1157, rapamycin screen
  Log2 Area (H/L) Ratio: 1.0015
Atxn2 phosphopeptide TS*PAGGTWSSVVSGVPR^, SEQ ID NO: 1156, rapamycin screen
  Log2 Area (H/L) Ratio: 1.0015
Azi1 phosphopeptide ANNAGASIYPTGPADPCPPASES*S*PEQWQSPEDKPQDIHSQGEAR, SEQ ID NO: 1138, rapamycin screen
  Log2 Area (H/L) Ratio: 1.0268
Dlg5 phosphopeptide SS*SHLDPAATPHSTLQGSSAGTPEHPSVIDPLMEQDEGPGTPPAK@, SEQ ID NO: 1129, rapamycin screen
  Log2 Area (H/L) Ratio: 1.0498
Eif4ebp1 phosphopeptide NS*PVAK@T*PPK@DLPAIPGVTSPTSDEPPM#QASQSQLPSSPEDK@, SEQ ID NO: 1143, rapamycin screen
  Log2 Area (H/L) Ratio: 1.0227
Eif4ebp1 phosphopeptide NS*PVAKT*PPKDLPAIPGVTSPT*SDEPPMQASQSQLPSS*PEDK, SEQ ID NO: 1150, rapamycin screen
  Log2 Area (H/L) Ratio: 1.0129
Eif4ebp2 phosphopeptide TVAISDAAQLPQDYCTT*PGGTLFSTT*PGGTRIIYDR, SEQ ID NO: 1137, rapamycin screen
  Log2 Area (H/L) Ratio: 1.0271
Eif4ebp2 phosphopeptide TVAISDAAQLPQDYCTT*PGGTLFSTT*PGGTR^IIYDR^, SEQ ID NO: 1136, rapamycin screen
  Log2 Area (H/L) Ratio: 1.0271
Erbb2ip phosphopeptide VGS*EHSLLDPPGK, SEQ ID NO: 1135, rapamycin screen
  Log2 Area (H/L) Ratio: 1.0307
Erf phosphopeptide FPPST*PSEVLS*PTEDPRS*PPACSSSSSSLFSAVVAR, SEQ ID NO: 1154, rapamycin screen
  Log2 Area (H/L) Ratio: 1.0039
Fam129a phosphopeptide HNLFEDNM#ALPSESVSS*LTDLK, SEQ ID NO: 1142, rapamycin screen
  Log2 Area (H/L) Ratio: 1.0232
Fam129a phosphopeptide HNLFEDNMALPSES*VSSLTDLK@TAMGS*NQAS*PAR^R^, SEQ ID NO: 1152, rapamycin screen
  Log2 Area (H/L) Ratio: 1.0048
Fam129a phosphopeptide HNLFEDNMALPSESVSSLT*DLK@TAMGS*NQAS*PAR^R^, SEQ ID NO: 1153, rapamycin screen
  Log2 Area (H/L) Ratio: 1.0048
Hells phosphopeptide S*INYSELDQFPSELEK, SEQ ID NO: 1132, rapamycin screen
  Log2 Area (H/L) Ratio: 1.0332
Hells phosphopeptide S*INYSELDQFPSELEK@, SEQ ID NO: 1133, rapamycin screen
  Log2 Area (H/L) Ratio: 1.0332
Hells phosphopeptide S*INYSELDQFPSELEK@, SEQ ID NO: 1134, rapamycin screen
  Log2 Area (H/L) Ratio: 1.0332
Ncaph2 phosphopeptide NGS*PVPVPDIS*QEPDGPALSGGEEDAEDGAEPLEVALEPAEPR^, SEQ ID NO: 1127, rapamycin screen
  Log2 Area (H/L) Ratio: 1.0598
Ncaph2 phosphopeptide NGS*PVPVPDISQEPDGPALS*GGEEDAEDGAEPLEVALEPAEPR, SEQ ID NO: 1126, rapamycin screen
  Log2 Area (H/L) Ratio: 1.0598
Ncaph2 phosphopeptide NGS*PVPVPDISQEPDGPALS*GGEEDAEDGAEPLEVALEPAEPR^, SEQ ID NO: 1125, rapamycin screen
  Log2 Area (H/L) Ratio: 1.0598
Pbx1 phosphopeptide TAVTATNVSAHGSQANS*PSTPNSAGGY*PSPCYQPDR^R^, SEQ ID NO: 1128, rapamycin screen
  Log2 Area (H/L) Ratio: 1.054
Pds5b phosphopeptide AES*PETSAVESTQST*PQK, SEQ ID NO: 1141, rapamycin screen
  Log2 Area (H/L) Ratio: 1.0246
Pds5b phosphopeptide AES*PETSAVESTQST*PQK@, SEQ ID NO: 1139, rapamycin screen
  Log2 Area (H/L) Ratio: 1.0246
Pds5b phosphopeptide AES*PETSAVESTQST*PQK@, SEQ ID NO: 1140, rapamycin screen
  Log2 Area (H/L) Ratio: 1.0246
Phldb1 phosphopeptide WAAHGTS*PEDFSLTLGAR^, SEQ ID NO: 1118, rapamycin screen
  Log2 Area (H/L) Ratio: 1.068
Ranbp10 phosphopeptide SQDS*YPGS*PSLSPR, SEQ ID NO: 1161, rapamycin screen
  Log2 Area (H/L) Ratio: 1.0009
Ranbp10 phosphopeptide SQDSYPGS*PSLS*PR, SEQ ID NO: 1158, rapamycin screen
  Log2 Area (H/L) Ratio: 1.0009
Ranbp10 phosphopeptide SQDSYPGS*PSLS*PR^, SEQ ID NO: 1159, rapamycin screen
  Log2 Area (H/L) Ratio: 1.0009
Ranbp10 phosphopeptide SQDSYPGS*PSLS*PR^, SEQ ID NO: 1160, rapamycin screen
  Log2 Area (H/L) Ratio: 1.0009
Ranbp10 phosphopeptide SQDSYPGS*PSLS*PR^, SEQ ID NO: 1162, rapamycin screen
  Log2 Area (H/L) Ratio: 1.0009
Rb1 phosphopeptide DGEGPDNLEPACPLSLPLQGNHTAADMYLS*PLRS*PK, SEQ ID NO: 1123, rapamycin screen
  Log2 Area (H/L) Ratio: 1.0618
Rb1 phosphopeptide DGEGPDNLEPACPLSLPLQGNHTAADMYLS*PLR^S*PK@, SEQ ID NO: 1122, rapamycin screen
  Log2 Area (H/L) Ratio: 1.0618
Samhd1 phosphopeptide CDGS*PR^T*PPS*TPPATANLSADDDFQNTDLR^, SEQ ID NO: 1155, rapamycin screen
  Log2 Area (H/L) Ratio: 1.0027
Shroom2 phosphopeptide SRS*S*PSTDHYSQEVPVEPNR, SEQ ID NO: 1144, rapamycin screen
  Log2 Area (H/L) Ratio: 1.0176
Shroom2 phosphopeptide SRS*S*PSTDHYSQEVPVEPNR, SEQ ID NO: 1145, rapamycin screen
  Log2 Area (H/L) Ratio: 1.0176
Shroom2 phosphopeptide SR^S*S*PSTDHYSQEVPVEPNR^, SEQ ID NO: 1146, rapamycin screen
  Log2 Area (H/L) Ratio: 1.0176
Tox4 phosphopeptide LSTTPS*PTNS*LHEDGVDDFRR, SEQ ID NO: 1130, rapamycin screen
  Log2 Area (H/L) Ratio: 1.0342
Tox4 phosphopeptide LSTTPS*PTNS*LHEDGVDDFRR, SEQ ID NO: 1164, rapamycin screen
  Log2 Area (H/L) Ratio: 1.0005
Tox4 phosphopeptide LSTTPS*PTNS*LHEDGVDDFR^R^, SEQ ID NO: 1131, rapamycin screen
  Log2 Area (H/L) Ratio: 1.0342
Tox4 phosphopeptide LSTTPS*PTNS*LHEDGVDDFR^R^, SEQ ID NO: 1163, rapamycin screen
  Log2 Area (H/L) Ratio: 1.0005
[1]
  Median (treated/ctrl) fold-change of phosphopeptide Eif4ebp1 S64, T69: 2.8 fold
  Median (treated/ctrl) fold-change of phosphopeptide Eif4ebp2 S65, T70: 39.1 fold
  Median (treated/ctrl) fold-change of phosphopeptide Eif4ebp2 T37, T46: 2.3 fold
  Median (treated/ctrl) fold-change of phosphopeptide LSSLRAS*TS*KSES*S*QK, RPS6 S240, S242, S246, S247: 4.5 fold
  Median (treated/ctrl) fold-change of phosphopeptide MNILSS*QS*PLHPSTLNAVIHR, Grb10 S421, S423 (isoform 3; S501/S503 in isoform 1): more than 27 fold and 27.3 fold
  Median (treated/ctrl) fold-change of phosphopeptide RLS*S*LRASTSK, RPS6 S235, S236: 30.5 fold
  Median (treated/ctrl) fold-change of phosphopeptide Rps6kb1 S441, T444, S447: 2.8 fold
  Median (treated/ctrl) fold-change of phosphopeptide S*LPVSVPVWAFK, Akt1s1 S184: 2.2 fold
  Median (treated/ctrl) fold-change of phosphopeptide SFS*KEVEER, Eif4g1 S1189: 2.8 fold
  Median (treated/ctrl) fold-change of phosphopeptide SRT*GS*ESSQTGASATSGR, Eif4b T420, S422: 4.3 fold
  Median (treated/ctrl) fold-change of phosphopeptide TGS*ESS*QTGASATSGR, Eif4b S422, S425: 4.6 fold
  Median (treated/ctrl) fold-change of phosphopeptide TTS*FAESCKPVQQPSAFGSMK, Gsk3β S9: approximately 3.3 fold and 3.3 fold
  Median (treated/ctrl) fold-change of phosphopeptide ULK1 S747, S757, T763: 4 fold and 4.1 fold
  Median (treated/ctrl) fold-change of triply phosphorylated Grb10 peptide T76, S96, S104: 5.4 fold
Rapamycin screen
  decrease of 4EBP1 T36/T45 phosphorylation after rapamycin treatment: 20%
